The record followed here is PubChem BioAssay (NCI).

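Results reflect a 48-hour exposure of cells in 96-well plates to compound at five concentrations. Definition used: TGI = concentration required for complete inhibition of growth.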

Test systems include DU-145 prostate; EKVX NSCLC; HCT-15 colon; HS 578T breast; HT29 colon; KM12 colon; MCF7 breast; NCI-H23 lung; NCI-H460 lung; OVCAR-3 ovarian; PC-3 prostate; SF-268 CNS; SF-539 CNS; SNB-75 CNS; SR leukemia; SW-620 colon; UO-31 renal; HCC-2998 colon; RXF 393 renal; MALME-3M melanoma.
Test in all cases: growth of human tumour cells (NCI), 48 h

Turning to `O=c1[nH]c(N/N=C\C(=N/Nc2nc3ccccc3c(=O)[nH]2)C(O)C(O)C(O)CO)nc2ccccc12` (stereo not given), the TGI with DU-145 prostate, with EKVX NSCLC, in the assay on HCT-15 colon, in the assay with HS 578T breast, in the assay with HT29 colon and with KM12 colon was over 100 µM each time. The TGI in the assay on MCF7 breast, in the assay with NCI-H23 lung, in the assay with NCI-H460 lung, with OVCAR-3 ovarian, in the assay with PC-3 prostate and in the assay with SF-268 CNS was over 100 µM throughout. In addition, the TGI in the assay on SF-539 CNS, in the assay with SNB-75 CNS, in the assay on SR leukemia, in the assay with SW-620 colon and in the assay on UO-31 renal was over 100 µM in each case.

On to `COc1ccccc1C(=O)NO`, for which the TGI in the assay on DU-145 prostate, in the assay with EKVX NSCLC, with HCC-2998 colon, in the assay with HCT-15 colon, with HS 578T breast and in the assay on HT29 colon was over 100 µM throughout. In addition, the TGI with KM12 colon, in the assay with MCF7 breast, with NCI-H23 lung, with NCI-H460 lung, in the assay on OVCAR-3 ovarian and with PC-3 prostate was over 100 µM in each case. The TGI with RXF 393 renal, in the assay with SF-268 CNS, in the assay on SNB-75 CNS, in the assay with SR leukemia, in the assay with SW-620 colon and with UO-31 renal was over 100 µM each time.

`C/C=C(/C)C(=O)O[C@H]1[C@H]2[C@@H]([C@@H](OC(C)=O)[C@H](C)C(=O)[C@@]34C[C@@H](C)C(=O)[C@]3(/C=C(\C)[C@H]1OC(C)=O)O4)C2(C)C`: the TGI is over 20 µM in the assay with DU-145 prostate; 17.1 µM in the assay on EKVX NSCLC; 8.53 µM in the assay on HCC-2998 colon; 5.77 µM in the assay with HCT-15 colon; 19.7 µM in the assay on HS 578T breast; 17.8 µM in the assay with KM12 colon. The TGI with MCF7 breast was 5.98 µM; in the assay with NCI-H23 lung, over 20 µM; in the assay on NCI-H460 lung it was over 20 µM; with OVCAR-3 ovarian, 7.01 µM; in the assay on PC-3 prostate, 15.8 µM; with RXF 393 renal, 6.75 µM. For the same molecule, the TGI with SF-268 CNS is over 20 µM; in the assay on SF-539 CNS, 5.83 µM; with SNB-75 CNS, over 20 µM; with SR leukemia it was 7.34 µM; in the assay with SW-620 colon, 6.41 µM; in the assay on UO-31 renal, 16 µM.

On to `CCOC(=O)Cn1c2ccc(Br)cc2c2nc3ccccc3nc21`, for which the TGI with DU-145 prostate, with HS 578T breast, with HT29 colon, with KM12 colon, in the assay on NCI-H23 lung and in the assay on OVCAR-3 ovarian was over 100 µM throughout. In addition, the TGI in the assay with PC-3 prostate, in the assay on RXF 393 renal, in the assay with SF-268 CNS, in the assay with SNB-75 CNS, in the assay with SR leukemia and in the assay with SW-620 colon was over 100 µM throughout. The molecule further registered a TGI in the assay on UO-31 renal of over 100 µM.

Regarding `C/C=C/C=C\C=C/C(O)C(C)C(CCC(C)C1OC(=O)C=CC1C)OP(=O)(O)O` (stereo not given), the TGI with DU-145 prostate stood at 1.76 µM; in the assay on EKVX NSCLC, 1.54 µM; in the assay with HCT-15 colon, 1.97 µM; in the assay with HS 578T breast, 4.28 µM; in the assay with HT29 colon, 1.08 µM; in the assay on KM12 colon, 1.16 µM. The TGI with MALME-3M melanoma is 0.641 µM; with MCF7 breast, 0.559 µM; with NCI-H23 lung, 4.83 µM; with NCI-H460 lung, 1.76 µM; in the assay on OVCAR-3 ovarian, 0.393 µM; in the assay on PC-3 prostate, 0.549 µM. Also, the TGI with RXF 393 renal was determined as 1.38 µM; with SF-268 CNS, 2.03 µM; in the assay on SF-539 CNS, 1.7 µM; in the assay with SNB-75 CNS, 2.85 µM; in the assay on SR leukemia, 0.511 µM; in the assay with SW-620 colon, 1.67 µM. Further, the TGI in the assay on UO-31 renal stood at 0.93 µM.

Regarding `CNC(=O)C1(C#N)C(c2ccccc2)C(C#N)(C(=O)NC)C1c1ccccc1` (stereo not given), the TGI with EKVX NSCLC, in the assay on HCC-2998 colon, in the assay with HCT-15 colon, in the assay with HS 578T breast, in the assay on HT29 colon and in the assay with KM12 colon was over 100 µM in each case. Besides, the TGI with MCF7 breast, in the assay on NCI-H23 lung, in the assay on NCI-H460 lung, with OVCAR-3 ovarian, with PC-3 prostate and in the assay on SF-268 CNS was over 100 µM throughout. For the same molecule, the TGI with SF-539 CNS, with SNB-75 CNS, in the assay with SR leukemia, with SW-620 colon and in the assay on UO-31 renal was over 100 µM in each case.

Consider `COc1ccc2c(=O)cc(-c3ccc(OC)c(OC)c3OC)oc2c1`, for which the TGI in the assay on DU-145 prostate, in the assay on EKVX NSCLC, in the assay with HCC-2998 colon, with HCT-15 colon, in the assay on HS 578T breast and in the assay on HT29 colon was over 100 µM in each case. For the same molecule, the TGI in the assay with KM12 colon is over 85.7 µM; in the assay with MALME-3M melanoma, over 100 µM; in the assay on NCI-H23 lung, over 100 µM; in the assay with NCI-H460 lung, over 100 µM; with OVCAR-3 ovarian, over 87.6 µM; with PC-3 prostate, over 100 µM. Besides, the TGI in the assay with RXF 393 renal was over 100 µM; in the assay on SF-268 CNS it was over 100 µM; in the assay on SF-539 CNS, over 100 µM; with SNB-75 CNS it was over 92.6 µM; in the assay on SR leukemia it was over 100 µM; with SW-620 colon, over 100 µM. Also, the TGI with UO-31 renal was over 100 µM.

Take `COc1ccc2nc3c([N+](=O)[O-])ccc4c3c(c2c1)NCCN4CCN(C)C`: the TGI in the assay with DU-145 prostate worked out at 4.91 µM; in the assay on EKVX NSCLC it was 2.78 µM; in the assay with HCT-15 colon, 1.94 µM; in the assay on HS 578T breast, 3.91 µM; in the assay on HT29 colon, 2.34 µM; in the assay with KM12 colon, 1.46 µM. Moreover, the TGI in the assay with MALME-3M melanoma was 1.56 µM; in the assay with MCF7 breast, over 10 µM; in the assay with NCI-H23 lung it was 2.86 µM; in the assay with NCI-H460 lung it was 1.46 µM; in the assay on OVCAR-3 ovarian, 2.4 µM; with PC-3 prostate it was 1.86 µM. For the same molecule, the TGI with RXF 393 renal amounted to 2.38 µM; in the assay with SF-268 CNS, 2.41 µM; in the assay on SF-539 CNS, 1.71 µM; in the assay on SNB-75 CNS, 1.57 µM; in the assay with SR leukemia, 7.24 µM; with SW-620 colon it was 1.98 µM. Further, the TGI with UO-31 renal turned out to be 3.42 µM.
